BindingDB's records for doi:10.1016/s0028-3908(97)00049-x (Roche Bioscience, 1997)

How the values were obtained:
[1] = target: T1, 5-hydroxytryptamine receptor 3A (Mus musculus, UniProt P23979)
T1 sequence (P23979 whole entry): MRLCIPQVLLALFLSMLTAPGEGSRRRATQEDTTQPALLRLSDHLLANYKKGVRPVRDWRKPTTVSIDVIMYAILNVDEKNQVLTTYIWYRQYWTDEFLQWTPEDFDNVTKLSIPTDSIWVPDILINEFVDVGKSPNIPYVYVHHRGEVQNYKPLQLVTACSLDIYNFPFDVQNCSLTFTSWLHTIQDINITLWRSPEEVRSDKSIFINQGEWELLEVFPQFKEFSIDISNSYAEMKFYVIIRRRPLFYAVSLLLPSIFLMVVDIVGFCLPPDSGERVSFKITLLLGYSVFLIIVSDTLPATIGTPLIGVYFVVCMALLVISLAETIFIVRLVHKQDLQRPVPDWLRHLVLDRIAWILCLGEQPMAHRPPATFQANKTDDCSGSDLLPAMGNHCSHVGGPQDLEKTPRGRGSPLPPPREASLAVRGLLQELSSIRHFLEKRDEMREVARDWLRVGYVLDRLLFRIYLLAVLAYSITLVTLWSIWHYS

[2] = target: T2, Alpha-2A adrenergic receptor (Oryctolagus cuniculus, UniProt Q5ZQK3)
T2 sequence (Q5ZQK3 whole entry): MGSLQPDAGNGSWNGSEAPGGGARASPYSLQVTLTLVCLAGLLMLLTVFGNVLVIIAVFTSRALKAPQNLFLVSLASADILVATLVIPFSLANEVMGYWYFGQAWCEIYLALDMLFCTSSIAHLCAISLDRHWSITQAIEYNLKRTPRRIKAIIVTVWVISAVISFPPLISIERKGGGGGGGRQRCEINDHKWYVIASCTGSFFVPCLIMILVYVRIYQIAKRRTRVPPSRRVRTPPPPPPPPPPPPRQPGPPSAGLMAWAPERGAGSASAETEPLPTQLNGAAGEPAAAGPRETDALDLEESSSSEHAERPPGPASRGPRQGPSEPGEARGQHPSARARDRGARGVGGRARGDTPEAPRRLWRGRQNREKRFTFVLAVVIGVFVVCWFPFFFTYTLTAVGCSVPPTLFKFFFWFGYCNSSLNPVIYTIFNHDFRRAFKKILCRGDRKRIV

[3] = target: T3, 5-hydroxytryptamine receptor 1A (Rattus norvegicus, UniProt P19327)
T3 sequence (P19327 whole entry): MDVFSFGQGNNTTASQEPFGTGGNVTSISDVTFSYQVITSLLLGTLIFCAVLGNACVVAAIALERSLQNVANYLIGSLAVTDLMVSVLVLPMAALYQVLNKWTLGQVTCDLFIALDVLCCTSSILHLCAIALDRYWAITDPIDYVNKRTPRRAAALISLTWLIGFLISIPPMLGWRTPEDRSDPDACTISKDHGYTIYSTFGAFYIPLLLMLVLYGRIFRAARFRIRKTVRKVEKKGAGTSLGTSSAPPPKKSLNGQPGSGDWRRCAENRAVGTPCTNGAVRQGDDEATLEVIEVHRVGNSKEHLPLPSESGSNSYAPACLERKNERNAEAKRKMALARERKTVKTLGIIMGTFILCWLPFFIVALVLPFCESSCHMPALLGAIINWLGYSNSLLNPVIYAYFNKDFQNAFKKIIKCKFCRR

[4] = target: 5-hydroxytryptamine receptor 7 (Cavia porcellus, UniProt P50407)
Chain of 5-hydroxytryptamine receptor 7 (P50407 whole entry): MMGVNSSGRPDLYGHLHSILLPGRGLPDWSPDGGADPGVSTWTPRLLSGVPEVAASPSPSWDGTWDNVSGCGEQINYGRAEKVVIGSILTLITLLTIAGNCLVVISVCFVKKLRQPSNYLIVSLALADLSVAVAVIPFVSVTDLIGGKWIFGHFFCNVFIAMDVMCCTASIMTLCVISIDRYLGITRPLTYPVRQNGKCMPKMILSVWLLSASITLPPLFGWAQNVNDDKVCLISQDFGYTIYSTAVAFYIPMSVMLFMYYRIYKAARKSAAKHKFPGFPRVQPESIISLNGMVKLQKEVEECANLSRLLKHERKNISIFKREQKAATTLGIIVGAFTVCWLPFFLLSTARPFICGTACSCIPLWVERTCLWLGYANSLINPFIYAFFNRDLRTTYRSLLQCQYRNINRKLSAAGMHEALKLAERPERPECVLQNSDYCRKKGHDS

Substance-P receptor = Substance-P receptor (Homo sapiens, UniProt P25103)
Chain of Substance-P receptor (P25103 whole entry): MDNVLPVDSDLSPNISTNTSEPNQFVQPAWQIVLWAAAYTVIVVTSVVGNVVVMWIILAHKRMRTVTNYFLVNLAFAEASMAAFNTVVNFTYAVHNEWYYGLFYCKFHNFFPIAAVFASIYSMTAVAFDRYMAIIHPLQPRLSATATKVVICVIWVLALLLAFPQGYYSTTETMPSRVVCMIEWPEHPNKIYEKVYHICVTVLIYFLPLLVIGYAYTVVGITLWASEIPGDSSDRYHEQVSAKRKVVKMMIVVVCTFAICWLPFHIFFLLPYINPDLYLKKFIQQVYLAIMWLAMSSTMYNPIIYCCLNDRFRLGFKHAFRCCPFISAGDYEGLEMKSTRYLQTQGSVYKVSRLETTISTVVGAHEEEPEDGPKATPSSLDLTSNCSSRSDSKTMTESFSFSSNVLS

[5] = target: T4, Muscarinic acetylcholine receptor M1 (Rattus norvegicus, UniProt P08482)
T4 sequence (P08482 whole entry): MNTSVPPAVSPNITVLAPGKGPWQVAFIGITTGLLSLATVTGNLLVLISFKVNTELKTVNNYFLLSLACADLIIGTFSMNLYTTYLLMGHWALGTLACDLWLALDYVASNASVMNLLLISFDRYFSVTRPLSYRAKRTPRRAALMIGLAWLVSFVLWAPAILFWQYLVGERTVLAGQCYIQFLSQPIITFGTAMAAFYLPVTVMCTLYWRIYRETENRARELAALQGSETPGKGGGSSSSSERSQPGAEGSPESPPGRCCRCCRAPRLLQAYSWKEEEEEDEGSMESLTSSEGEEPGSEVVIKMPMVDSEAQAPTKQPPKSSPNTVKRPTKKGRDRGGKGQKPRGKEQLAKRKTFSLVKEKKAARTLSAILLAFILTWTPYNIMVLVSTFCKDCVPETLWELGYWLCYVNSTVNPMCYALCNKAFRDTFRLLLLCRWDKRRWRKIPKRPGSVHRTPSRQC

[6] = target: Beta-2 adrenergic receptor (Rattus norvegicus, UniProt P10608)
Chain of Beta-2 adrenergic receptor (P10608 whole entry): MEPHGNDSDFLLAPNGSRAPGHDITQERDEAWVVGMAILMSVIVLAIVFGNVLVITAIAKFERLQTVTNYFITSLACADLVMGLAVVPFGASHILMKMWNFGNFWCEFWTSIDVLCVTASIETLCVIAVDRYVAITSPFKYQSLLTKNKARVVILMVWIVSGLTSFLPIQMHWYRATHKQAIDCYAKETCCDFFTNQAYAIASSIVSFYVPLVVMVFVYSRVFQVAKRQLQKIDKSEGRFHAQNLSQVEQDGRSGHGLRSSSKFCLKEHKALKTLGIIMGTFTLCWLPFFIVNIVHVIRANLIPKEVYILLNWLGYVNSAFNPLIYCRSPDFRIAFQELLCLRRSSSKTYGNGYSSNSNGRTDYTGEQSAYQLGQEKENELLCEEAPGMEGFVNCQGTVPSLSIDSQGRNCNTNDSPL

[7] = target: T5, Muscarinic acetylcholine receptor M2 (Rattus norvegicus, UniProt P10980)
T5 sequence (P10980 whole entry): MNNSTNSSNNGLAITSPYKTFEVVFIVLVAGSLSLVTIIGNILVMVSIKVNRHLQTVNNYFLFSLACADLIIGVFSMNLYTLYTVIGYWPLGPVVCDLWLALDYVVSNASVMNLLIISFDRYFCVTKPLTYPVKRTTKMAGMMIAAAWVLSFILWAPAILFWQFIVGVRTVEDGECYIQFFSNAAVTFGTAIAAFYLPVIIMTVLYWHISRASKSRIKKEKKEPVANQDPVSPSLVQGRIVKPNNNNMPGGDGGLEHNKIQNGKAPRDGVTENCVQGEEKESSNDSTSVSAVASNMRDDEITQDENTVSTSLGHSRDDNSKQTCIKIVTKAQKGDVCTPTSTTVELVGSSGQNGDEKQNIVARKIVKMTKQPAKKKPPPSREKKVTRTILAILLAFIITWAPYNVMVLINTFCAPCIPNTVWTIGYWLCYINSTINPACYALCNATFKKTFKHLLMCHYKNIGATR

[8] = target: T6, Alpha-2B adrenergic receptor (Rattus norvegicus, UniProt P19328)
T6 sequence (P19328 whole entry): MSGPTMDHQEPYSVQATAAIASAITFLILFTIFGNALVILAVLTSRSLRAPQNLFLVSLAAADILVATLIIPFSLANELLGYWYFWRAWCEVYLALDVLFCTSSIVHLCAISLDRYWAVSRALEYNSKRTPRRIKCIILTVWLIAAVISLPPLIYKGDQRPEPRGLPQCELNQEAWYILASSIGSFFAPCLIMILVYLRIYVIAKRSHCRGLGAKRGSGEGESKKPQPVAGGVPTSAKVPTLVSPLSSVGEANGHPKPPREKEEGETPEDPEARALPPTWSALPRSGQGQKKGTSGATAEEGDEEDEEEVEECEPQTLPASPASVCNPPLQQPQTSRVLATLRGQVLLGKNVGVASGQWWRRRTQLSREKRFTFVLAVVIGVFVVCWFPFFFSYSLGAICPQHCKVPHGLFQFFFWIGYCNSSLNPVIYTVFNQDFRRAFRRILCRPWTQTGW

Glutamate receptor 3 = Glutamate receptor 3 (Rattus norvegicus, UniProt P19492)
Chain of Glutamate receptor 3 (P19492 whole entry): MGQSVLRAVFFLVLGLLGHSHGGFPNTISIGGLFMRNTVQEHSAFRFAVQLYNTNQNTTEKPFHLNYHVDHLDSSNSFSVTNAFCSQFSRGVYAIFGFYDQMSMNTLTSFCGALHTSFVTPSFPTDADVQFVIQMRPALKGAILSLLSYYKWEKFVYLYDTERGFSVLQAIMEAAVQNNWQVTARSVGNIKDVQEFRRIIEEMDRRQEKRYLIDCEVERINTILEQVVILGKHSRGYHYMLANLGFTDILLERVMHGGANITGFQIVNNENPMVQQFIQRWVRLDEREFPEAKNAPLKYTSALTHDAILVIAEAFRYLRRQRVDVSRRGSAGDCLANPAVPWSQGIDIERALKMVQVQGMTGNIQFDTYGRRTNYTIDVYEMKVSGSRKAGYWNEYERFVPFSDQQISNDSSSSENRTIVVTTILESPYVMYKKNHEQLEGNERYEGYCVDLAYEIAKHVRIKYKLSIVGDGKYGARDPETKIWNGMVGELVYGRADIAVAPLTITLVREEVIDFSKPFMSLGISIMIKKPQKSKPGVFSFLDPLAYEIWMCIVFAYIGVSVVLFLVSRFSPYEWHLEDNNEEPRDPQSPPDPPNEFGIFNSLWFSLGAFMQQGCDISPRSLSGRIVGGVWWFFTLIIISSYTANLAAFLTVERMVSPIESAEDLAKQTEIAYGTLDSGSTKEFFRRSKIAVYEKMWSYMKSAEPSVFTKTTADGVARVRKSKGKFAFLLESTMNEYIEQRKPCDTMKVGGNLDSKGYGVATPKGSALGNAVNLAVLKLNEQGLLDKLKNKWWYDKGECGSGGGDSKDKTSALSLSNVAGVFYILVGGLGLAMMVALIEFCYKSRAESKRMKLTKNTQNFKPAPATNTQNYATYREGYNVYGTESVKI

Mu-type opioid receptor = Mu-type opioid receptor (Cavia porcellus, UniProt P97266)
Chain of Mu-type opioid receptor (P97266 whole entry): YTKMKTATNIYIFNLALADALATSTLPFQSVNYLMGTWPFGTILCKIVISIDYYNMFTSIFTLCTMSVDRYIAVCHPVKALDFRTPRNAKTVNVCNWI

[9] = target: T7, Beta-1 adrenergic receptor (Oryctolagus cuniculus, UniProt A0A4Y6F0G0)
T7 sequence (A0A4Y6F0G0 whole entry): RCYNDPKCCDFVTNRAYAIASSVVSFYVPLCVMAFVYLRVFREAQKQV

[10] = target: T8, Alpha-1B adrenergic receptor (Rattus norvegicus, UniProt P15823)
T8 sequence (P15823 whole entry): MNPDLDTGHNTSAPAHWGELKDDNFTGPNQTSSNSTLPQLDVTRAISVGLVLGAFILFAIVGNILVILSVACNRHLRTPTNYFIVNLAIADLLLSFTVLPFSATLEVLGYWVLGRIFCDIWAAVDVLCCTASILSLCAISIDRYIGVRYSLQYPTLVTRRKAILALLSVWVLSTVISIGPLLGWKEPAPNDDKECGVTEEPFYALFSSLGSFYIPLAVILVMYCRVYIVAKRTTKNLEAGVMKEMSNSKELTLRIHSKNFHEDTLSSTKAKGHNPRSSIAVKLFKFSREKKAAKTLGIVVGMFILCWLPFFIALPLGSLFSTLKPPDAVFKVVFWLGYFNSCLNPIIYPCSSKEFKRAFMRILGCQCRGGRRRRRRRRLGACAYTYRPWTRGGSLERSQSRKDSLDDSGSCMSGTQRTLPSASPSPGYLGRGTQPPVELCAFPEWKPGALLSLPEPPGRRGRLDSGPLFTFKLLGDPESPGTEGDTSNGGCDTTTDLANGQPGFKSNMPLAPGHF

[11] = target: Kappa-type opioid receptor (Cavia porcellus, UniProt P41144)
Chain of Kappa-type opioid receptor (P41144 whole entry): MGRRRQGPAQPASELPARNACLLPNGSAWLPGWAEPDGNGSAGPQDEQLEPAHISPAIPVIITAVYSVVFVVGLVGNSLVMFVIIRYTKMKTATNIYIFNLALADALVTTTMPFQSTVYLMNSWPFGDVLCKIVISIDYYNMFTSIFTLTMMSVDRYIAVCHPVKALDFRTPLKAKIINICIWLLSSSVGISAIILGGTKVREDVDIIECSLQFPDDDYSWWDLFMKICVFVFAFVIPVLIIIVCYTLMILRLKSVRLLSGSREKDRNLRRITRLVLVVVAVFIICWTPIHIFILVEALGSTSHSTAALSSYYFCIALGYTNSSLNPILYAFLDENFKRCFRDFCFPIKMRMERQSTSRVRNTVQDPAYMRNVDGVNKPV

[12] = target: Glutamate receptor ionotropic, NMDA 1 (Rattus norvegicus, UniProt P35439)
[13] = target: Muscarinic acetylcholine receptor M3 (Rattus norvegicus, UniProt P08483)
Chain of Muscarinic acetylcholine receptor M3 (P08483 whole entry): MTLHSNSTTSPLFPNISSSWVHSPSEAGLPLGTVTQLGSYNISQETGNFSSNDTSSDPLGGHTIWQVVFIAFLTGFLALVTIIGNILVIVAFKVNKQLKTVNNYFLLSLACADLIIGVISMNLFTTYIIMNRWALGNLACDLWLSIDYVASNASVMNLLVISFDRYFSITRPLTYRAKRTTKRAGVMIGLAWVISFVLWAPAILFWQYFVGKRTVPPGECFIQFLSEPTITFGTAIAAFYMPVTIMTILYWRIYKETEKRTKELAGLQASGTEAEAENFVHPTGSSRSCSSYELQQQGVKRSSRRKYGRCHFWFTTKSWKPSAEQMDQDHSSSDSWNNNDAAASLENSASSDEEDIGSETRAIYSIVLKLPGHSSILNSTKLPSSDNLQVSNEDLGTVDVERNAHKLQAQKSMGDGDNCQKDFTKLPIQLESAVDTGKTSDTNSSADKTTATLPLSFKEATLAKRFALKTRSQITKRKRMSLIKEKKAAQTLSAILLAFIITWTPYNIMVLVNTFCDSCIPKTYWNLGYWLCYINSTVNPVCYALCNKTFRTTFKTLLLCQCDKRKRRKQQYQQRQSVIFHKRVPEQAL

[14] = target: Gamma-aminobutyric acid receptor subunit alpha-1 (Rattus norvegicus, UniProt P62813)
Chain of Gamma-aminobutyric acid receptor subunit alpha-1 (P62813 whole entry): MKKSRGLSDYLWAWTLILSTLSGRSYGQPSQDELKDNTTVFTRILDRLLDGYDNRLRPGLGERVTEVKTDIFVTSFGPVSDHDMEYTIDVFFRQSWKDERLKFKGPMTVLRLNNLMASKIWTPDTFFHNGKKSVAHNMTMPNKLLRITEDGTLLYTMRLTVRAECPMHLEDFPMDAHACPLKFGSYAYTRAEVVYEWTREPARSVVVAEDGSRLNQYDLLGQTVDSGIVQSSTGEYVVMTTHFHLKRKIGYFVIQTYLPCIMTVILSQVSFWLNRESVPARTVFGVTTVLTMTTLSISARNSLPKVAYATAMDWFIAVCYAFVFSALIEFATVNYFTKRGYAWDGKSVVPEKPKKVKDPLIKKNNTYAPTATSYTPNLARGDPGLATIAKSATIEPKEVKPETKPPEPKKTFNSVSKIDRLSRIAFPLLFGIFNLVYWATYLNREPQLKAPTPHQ

Ki [1]: > 10 µM | Ki [2]: 0.316 µM | Ki [3]: > 10 µM | Ki [4]: > 10 µM | Ki (Substance-P receptor): > 10 µM | Ki [5]: > 10 µM | Ki [6]: > 10 µM | Ki [7]: > 10 µM | Ki [8]: > 10 µM | Ki (Glutamate receptor 3): > 10 µM | Ki (Mu-type opioid receptor): > 10 µM | Ki [9]: > 10 µM | Ki [10]: > 10 µM | Ki [11]: > 10 µM | Ki [12]: > 10 µM | Ki [13]: > 10 µM | Ki [14]: > 10 µM
SMILES: COc1cc(OC)c(C(=O)CCCCN2CCC3(CC2)NC(=O)NC3=O)cc1NS(=O)(=O)c1ccc(C(F)(F)F)cc1 [N-[5-[5-(2,4-Dioxo-1,3,8-triazaspiro[4.5]decan-8-yl)-1-oxopentyl]-2,4-dimethoxyphenyl]-4-(trifluoromethyl)benzenesulfonamide]
